Square brackets hold non-standard residues; d marks the D form. Peptide text beside a SMILES is read from it. * marks the point of attachment. Phe(4-Cl) = N[C@@H](Cc1ccc(Cl)cc1)C(=O)O; C14 diacid = O=C(O)CCCCCCCCCCCCC(=O)*; HOOC(CH2)8CO = O=C(O)CCCCCCCCC(=O)*; HOOC(CH2)6CO = O=C(O)CCCCCCC(=O)*; hArg = N=C(N)NCCCC[C@H](N)C(=O)O; Cit = NC(=O)NCCC[C@H](N)C(=O)O; Decanoyl = CCCCCCCCCC(=O)*; Nle = CCCC[C@H](N)C(=O)O; Abu = CC[C@H](N)C(=O)O; PhAc = O=C(Cc1ccccc1)*
Assays:
[1] = tested on: hGH-RH(1-29)NH2 induced GH release; test: Inhibition of GH release in superfused rat pituitary system; assay type: cell-based; settings: for GH response (% of control) 0 min / GH response (% of control) 30 min / GH response (% of control) 60 min / GH response (% of control) 90 min / GH response (% of control) 120 min: antagonist 30 nM; for GH response (% of control) 0 min: 1 nM hGH-RH(1-29)NH2 at 0 min; for GH response (% of control) 30 min: 1 nM hGH-RH(1-29)NH2 at 30 min; for GH response (% of control) 60 min: 1 nM hGH-RH(1-29)NH2 at 60 min; for GH response (% of control) 90 min: 1 nM hGH-RH(1-29)NH2 at 90 min; for GH response (% of control) 120 min: 1 nM hGH-RH(1-29)NH2 at 120 min
Outline: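 Dispersed rat pituitary cells in superfusion were preincubated 9 min with analog at various concentrations, then stimulated with 1 nM hGH-RH(1-29)NH2 for 3 min, repeated at 30, 60, 90, 120 min to gauge duration. GH measured by double-antibody RIA; net integrated responses expressed as percent of the initial 1 nM GH-RH response.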

[2] = tested on: GH-RH receptor isoforms on membrane fractions of human PC-3 prostate tumors; assay type: binding; settings: for binding affinities to the tumoral receptors for GH-RH (in words): general statement
Excerpt: Ligand competition assays with ^125I-labeled GH-RH antagonist JV-1-42 were used to determine the binding affinities of GH-RH analogs to the GH-RH receptor isoforms on membrane fractions of human PC-3 prostate tumors. The methods used have been described in detail (Halmos G, Schally A V, Varga J L, Plonowski A, Rekasi Z, Czompoly T, Proc Natl Acad Sci USA 97: 10555-10560, 2000; Halmos G, Schally A V, Czompoly T, Krupa M, Varga J L, Rekasi Z, J Clin Endocrinol Metab 87: 4707-4714, 2002), hereby incorporated by reference. Briefly, radioiodinated derivatives of JV-142 are prepared by the chloramine-T method. PC-3 tumors, grown as xenografts in nude mice, are used to prepare crude membranes. PC-3 membrane homogenates are incubated with [^125I]JV-142 and increasing concentrations (10^−12 to 10^−6 M) of nonradioactive antagonist peptides as competitors. The pellet is separated by centrifugation and counted for radioactivity in a gamma-counter. The final binding affinities are estimated by K1 (dissociation constant of the inhibitor-receptor complex) and are determined by the Ligand PC and McPherson computer programs of Munson and Rodbard (P. J. Munson and D. Rodbard, Anal. Biochem. […]: 220-239, 1980). Relative affinities (R.A.) compared to reference peptides such as JV-1-36 or JV-1-38, are calculated as the ratio of K1 of the reference peptide to the K, of the tested GH-RH antagonist.

SMILES	Relative Affinities (R.A.) to membrane receptors on PC-3 human prostate cancers [2]	binding affinities to the tumoral receptors for GH-RH (in words) [2]	GH response (% of control) 0 min [1]	GH response (% of control) 30 min [1]	GH response (% of control) 60 min [1]	GH response (% of control) 90 min [1]	GH response (% of control) 120 min [1]	endocrine antagonistic potency: inhibition of the GH release stimulated by hGH-RH(1-29)NH2 (in words) ([1]; general statement, in vitro and in vivo)
CCCCCCCCCC(=O)N[C@@H](Cc1ccc(O)cc1)C(=O)N[C@H](CCCNC(=N)N)C(=O)N[C@@H](CC(=O)O)C(=O)N[C@@H](C)C(=O)N[C@H](C(=O)N[C@@H](Cc1ccc(Cl)cc1)C(=O)N[C@H](C(=O)N[C@@H](CC(N)=O)C(=O)N[C@@H](CCCNC(=N)N)C(=O)N[C@@H](Cc1ccc(O)cc1)C(=O)N[C@@H](CCCNC(=N)N)C(=O)N[C@@H](CCCCN)C(=O)N[C@H](C(=O)N[C@@H](CC(C)C)C(=O)N[C@@H](CC)C(=O)N[C@@H](CCC(N)=O)C(=O)N[C@@H](CC(C)C)C(=O)N[C@@H](CO)C(=O)N[C@@H](C)C(=O)N[C@@H](CCCNC(=N)N)C(=O)N[C@@H](CCCCN)C(=O)N[C@@H](CC(C)C)C(=O)N[C@@H](CC(C)C)C(=O)N[C@@H](CCC(N)=O)C(=O)N[C@@H](CC(=O)O)C(=O)N[C@H](C(=O)N[C@@H](CCCC)C(=O)N[C@H](CCCNC(=N)N)C(=O)N[C@@H](CCCCNC(=N)N)C(N)=O)[C@@H](C)CC)C(C)C)[C@@H](C)O)[C@@H](C)CC [Peptide 6, [CH3(CH2)8CO-Tyr^1, D-Arg^2, Phe(pCl)^6, Arg^9, Abu^15, Nle^27, D-Arg^28, Har^29]hGH-RH(1-29)NH2] (Decanoyl-Y[dR]DAI[Phe(4-Cl)]TNRYRKVL[Abu]QLSARKLLQDI[Nle][dR][hArg]-NH2)	0.6		56 % of control	22 % of control	12 % of control	15 % of control	19 % of control	
CCCC[C@H](NC(=O)[C@@H](NC(=O)[C@H](CC(=O)O)NC(=O)[C@H](CCC(N)=O)NC(=O)[C@H](CC(C)C)NC(=O)[C@H](CC(C)C)NC(=O)[C@H](CCCCN)NC(=O)[C@H](CCCNC(=N)N)NC(=O)[C@H](C)NC(=O)[C@H](CO)NC(=O)[C@H](CC(C)C)NC(=O)[C@H](CCC(N)=O)NC(=O)[C@H](CC)NC(=O)[C@H](CC(C)C)NC(=O)[C@@H](NC(=O)[C@H](CCCCN)NC(=O)[C@H](CCCNC(=N)N)NC(=O)[C@H](Cc1ccc(O)cc1)NC(=O)[C@H](CCCNC(=N)N)NC(=O)[C@H](CC(N)=O)NC(=O)[C@@H](NC(=O)[C@H](Cc1ccc(Cl)cc1)NC(=O)[C@@H](NC(=O)[C@H](C)NC(=O)[C@H](CC(=O)O)NC(=O)[C@@H](CCCNC(=N)N)NC(=O)[C@H](Cc1ccc(O)cc1)NC(=O)CCCCCCCCCCCCC(=O)O)[C@@H](C)CC)[C@@H](C)O)C(C)C)[C@@H](C)CC)C(=O)N[C@H](CCCNC(=N)N)C(=O)N[C@@H](CCCCNC(=N)N)C(N)=O [Peptide 11, [HOOC(CH2)12CO-Tyr^1, D-Arg^2, Phe(pCl)^6, Arg^9, Abu^15, Nle^27, D-Arg^28, Har^29]hGH-RH(1-29)NH2] ({C14 diacid}-Y[dR]DAI[Phe(4-Cl)]TNRYRKVL[Abu]QLSARKLLQDI[Nle][dR][hArg]-NH2)	1.3	extremely high binding affinities	14 % of control	24 % of control	29 % of control	34 % of control	32 % of control	
CCCC[C@H](NC(=O)[C@@H](NC(=O)[C@H](CC(=O)O)NC(=O)[C@H](CCC(N)=O)NC(=O)[C@H](CC(C)C)NC(=O)[C@H](CC(C)C)NC(=O)[C@H](CCCCN)NC(=O)[C@H](CCCNC(=N)N)NC(=O)[C@H](C)NC(=O)[C@H](CO)NC(=O)[C@H](CC(C)C)NC(=O)[C@H](CCC(N)=O)NC(=O)[C@H](CC)NC(=O)[C@H](CC(C)C)NC(=O)[C@@H](NC(=O)[C@H](CCCCN)NC(=O)[C@H](CCCNC(=N)N)NC(=O)[C@H](Cc1ccc(O)cc1)NC(=O)[C@H](CCCNC(N)=O)NC(=O)[C@H](CCCNC(N)=O)NC(=O)[C@@H](NC(=O)[C@H](Cc1ccc(Cl)cc1)NC(=O)[C@@H](NC(=O)[C@H](C)NC(=O)[C@H](CC(=O)O)NC(=O)[C@@H](CCCNC(=N)N)NC(=O)[C@H](Cc1ccc(O)cc1)NC(=O)Cc1ccccc1)[C@@H](C)CC)[C@@H](C)O)C(C)C)[C@@H](C)CC)C(=O)N[C@H](CCCNC(=N)N)C(=O)N[C@@H](CCCCNC(=N)N)C(N)=O [Peptide 22, [PhAc-Tyr^1, D-Arg^2, Phe(pCl)^6, Cit^8, Cit^9, Abu^15, Nle^27, D-Arg^28, Har^29]hGH-RH(1-29)NH2] (PhAc-Y[dR]DAI[Phe(4-Cl)]T[Cit][Cit]YRKVL[Abu]QLSARKLLQDI[Nle][dR][hArg]-NH2)		extremely high binding affinities	22 % of control	26 % of control	27 % of control	45 % of control		

Second part, led by results:

Relative Affinities (R.A.) to membrane receptors on PC-3 human prostate cancers [2]	binding affinities to the tumoral receptors for GH-RH (in words) [2]	SMILES	GH response (% of control) 0 min [1]	GH response (% of control) 30 min [1]	GH response (% of control) 60 min [1]	GH response (% of control) 90 min [1]	GH response (% of control) 120 min [1]	endocrine antagonistic potency: inhibition of the GH release stimulated by hGH-RH(1-29)NH2 (in words) ([1]; general statement, in vitro and in vivo)
4	extremely high binding affinities	CCCC[C@H](NC(=O)[C@@H](NC(=O)[C@H](CC(=O)O)NC(=O)[C@H](CCC(N)=O)NC(=O)[C@H](CC(C)C)NC(=O)[C@H](CC(C)C)NC(=O)[C@H](CCCCN)NC(=O)[C@H](CCCNC(=N)N)NC(=O)[C@H](C)NC(=O)[C@H](CO)NC(=O)[C@H](CC(C)C)NC(=O)[C@H](CCC(N)=O)NC(=O)[C@H](CC)NC(=O)[C@H](CC(C)C)NC(=O)[C@@H](NC(=O)[C@H](CCCCN)NC(=O)[C@H](CCCNC(=N)N)NC(=O)[C@H](Cc1ccc(O)cc1)NC(=O)[C@H](CCCNC(=N)N)NC(=O)[C@H](CC(N)=O)NC(=O)[C@@H](NC(=O)[C@H](Cc1ccc(Cl)cc1)NC(=O)[C@@H](NC(=O)[C@H](C)NC(=O)[C@H](CC(=O)O)NC(=O)[C@@H](CCCNC(=N)N)NC(=O)[C@H](Cc1ccc(O)cc1)NC(=O)CCCCCCC(=O)O)[C@@H](C)CC)[C@@H](C)O)C(C)C)[C@@H](C)CC)C(=O)N[C@H](CCCNC(=N)N)C(=O)N[C@@H](CCCCNC(=N)N)C(N)=O [Peptide 5, [HOOC(CH2)6CO-Tyr^1, D-Arg^2, Phe(pCl)^6, Arg^9, Abu^15, Nle^27, D-Arg^28, Har^29]hGH-RH(1-29)NH2] ({HOOC(CH2)6CO}-Y[dR]DAI[Phe(4-Cl)]TNRYRKVL[Abu]QLSARKLLQDI[Nle][dR][hArg]-NH2)	22 % of control	20 % of control	23 % of control	27 % of control	27 % of control	
12	extremely high binding affinities	CCCC[C@H](NC(=O)[C@@H](NC(=O)[C@H](CC(=O)O)NC(=O)[C@H](CCC(N)=O)NC(=O)[C@H](CC(C)C)NC(=O)[C@H](CC(C)C)NC(=O)[C@H](CCCCN)NC(=O)[C@H](CCCNC(=N)N)NC(=O)[C@H](C)NC(=O)[C@H](CO)NC(=O)[C@H](CC(C)C)NC(=O)[C@H](CCC(N)=O)NC(=O)[C@H](CC)NC(=O)[C@H](CC(C)C)NC(=O)[C@@H](NC(=O)[C@H](CCCCN)NC(=O)[C@H](CCCNC(=N)N)NC(=O)[C@H](Cc1ccc(O)cc1)NC(=O)[C@H](CCCNC(=N)N)NC(=O)[C@H](CC(N)=O)NC(=O)[C@@H](NC(=O)[C@H](Cc1ccc(Cl)cc1)NC(=O)[C@@H](NC(=O)[C@H](C)NC(=O)[C@H](CC(=O)O)NC(=O)[C@@H](CCCNC(=N)N)NC(=O)[C@H](Cc1ccc(O)cc1)NC(=O)CCCCCCCCC(=O)O)[C@@H](C)CC)[C@@H](C)O)C(C)C)[C@@H](C)CC)C(=O)N[C@H](CCCNC(=N)N)C(=O)N[C@@H](CCCCNC(=N)N)C(N)=O [Peptide 7, [HOOC(CH2)8CO-Tyr^1, D-Arg^2, Phe(pCl)^6, Arg^9, Abu^15, Nle^27, D-Arg^28, Har^29]hGH-RH(1-29)NH2] ({HOOC(CH2)8CO}-Y[dR]DAI[Phe(4-Cl)]TNRYRKVL[Abu]QLSARKLLQDI[Nle][dR][hArg]-NH2)	23 % of control	13 % of control	11 % of control	14 % of control	14 % of control	high endocrine antagonistic potencies

Source: US7452865B2, “Antagonistic analogs of GH RH (2003)” (The Administrare's of the Tulane Educational Fund, priority 2004, dated 2008)
